Experimental data: patent US20070232594A1, “Aromatic amide derivatives, medicinal compositions containing the same, medical uses of both” (priority 2004, published 2007)

Experiments:
human V2 receptor [1] = target: T1, human V2 receptor (Homo sapiens, UniProt P30518); test: Binding experiment for human V2 receptor ([3H]-AVP displacement, CHO cell membranes); set-up: purchased Packard BioScience; host or cells: CHO cells (membranes); settings: [3H]-AVP binding, CHO cell membranes expressing human V2 receptor; Ki calculated from IC50 and Kd
T1 sequence (P30518 whole entry): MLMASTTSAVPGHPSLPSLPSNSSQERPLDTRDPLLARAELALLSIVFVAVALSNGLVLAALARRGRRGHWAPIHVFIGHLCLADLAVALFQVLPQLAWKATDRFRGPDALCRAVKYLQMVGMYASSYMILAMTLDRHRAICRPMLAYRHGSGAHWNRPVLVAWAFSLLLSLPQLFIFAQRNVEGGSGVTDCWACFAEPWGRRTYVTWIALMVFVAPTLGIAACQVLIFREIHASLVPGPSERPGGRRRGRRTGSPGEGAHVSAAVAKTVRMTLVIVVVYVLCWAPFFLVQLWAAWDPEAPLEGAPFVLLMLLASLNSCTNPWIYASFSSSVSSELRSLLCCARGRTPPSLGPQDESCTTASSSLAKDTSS
Protocol: Binding Experiment for Human V2 Receptor
Test compounds were dissolved in dimethylsulfoxide at 10 mM. The affinities for human V2 receptor were determined by an inhibition against [^3H]-Arginie vasopressin (AVP) (Perkin elmer Japan) binding to the human V2 receptor using CHO cell membranes expressed human V2 receptor (Packard BioScience). Cell membranes suspension was prepared by suspending the cell membranes as mentioned above with Assay buffer (50 mM Tris-HCl, 10 mM MgCl2, 0.1% bovine serum albumin (BSA), pH7.4) at an adequate protein concentration. The test compound solutions were prepared by diluting the dimethylsulfoxide solution of the test compound as mentioned above with Assay buffer at final concentration of 10 nM, 100 nM, 1 μM and 10 μM (in this diluting procedure, concentration of dimethylsulfoxide was adjusted to be 0.5% at each concentration of the test compound). Cell membranes suspension (50 μL), 3 nM of [^3H]-AVP (50 μL), Assay buffer (50 μL) and the solution of the test compounds at each concentrations (50 μL) were added to MultiScreen 96-well plate (Millipore) and the mixture was incubated for an hour at 25° C. with shaking slightly. After filtration by aspiration, the plate was washed with ice-cold washing buffer (50 mM Tris-HCl, 10 mM MgCl2, pH 7.4) for three times. After dry the plate, Microscinti-20 (Packard) was added to each well and the plate was shaken slightly, and then radioactivities of each well were counted with a micro plate scintillation counter, TopCount (Packard). Non-specific binding of [^3H]-AVP for cell membranes was determined by adding 1 μM of cold AVP substituted for the test compounds. The concentration of the test compounds inhibiting the specific binding of [^3H]-AVP by 50% was considered as IC50 value.
The Calculation of Kd Value of [^3H]-AVP for the Cell Membranes Expressed Human V2 Receptor
The suspension of the cell membranes expressed human V2 receptor was prepared with diluting adequately with the Assay buffer as mentioned above. In consideration for the radioactivity of [^3H]-AVP, six different concentrations (final concentration; ranging from approximately 100 pM to 6000 pM) of [^3H]-AVP were prepared by serial dilution by from 2 to 3 fold with the Assay buffer. The cell membranes suspension (50 μL), each concentrations of [^3H]-AVP (50 μL), the Assay buffer (50 μL) and 1 μM of cold AVP or the Assay buffer were added to MultiScreen 96-well plate (Millipore) and the mixture was incubated for an hour at 25° C. with shaking slightly. The specific bindings (Bvalue) of each concentrations of the [^3H]-AVP were determined by the method as mentioned above and free-bound contents (F value) at each concentrations of the [^3H]-AVP were determined. The Kd value was calculated by Scatchard analysis using the B value and the F value.

human V2 receptor [2] = target: T1, human V2 receptor; test: Study to confirm the agonism of human V2 receptor (intracellular Ca2+, HEK293 cells coexpressing human V2 receptor and Gqs chimeric protein); type: cell-based; set-up: expressed in transfected cells; host or cells: HEK293 cells (American Type Culture Collection), transient transfection with pCI-neo/hV2 and pLEC-Gqs5; settings: for EC50: intracellular Ca2+, HEK293 cells coexpressing human V2 receptor and Gqs; for IA (intrinsic activity): maximum response relative to AVP = 1
Protocol: The Study to Confirm the Agonism of Human V2 Receptor
The experiment to confirm the response of the test compounds to human V2 receptor was carried out using the cells prepared as described below in order to use this confirmation study to see the agonism of human V2 receptor of the test compounds.
The test compounds were dissolved in dimethylsulfoxide at 10 mM and solutions of the test compounds were prepared by 10-fold serial dilution with the Assay buffer (0.1% BSA, 20 mM HEPES/Hank's balanced salt solution, pH 7.4) at the concentration of 0.1 nM to 10 μM, which were used in this study.
Human V2 receptor couples with Gs protein, one of the G-coupling protein, and consequently produces cyclic adenosine 3′, 5′-monophosphate (cAMP) via adenylate cyclase. This cAMP produce can be substituted to intracellular increase of Ca^2+ with coexpressing Gqs, a chimeric protein, and human V2 receptor (Mol. Pharmacol., Vol. 50, pp. 885-890, 1996). The responses of the test compounds for human V2 receptor were quantified by measuring this intracellular Ca^2+. The changes of intracellular Ca^2+ after adding the test compounds at each concentration as mentioned above (0.1 nM to 10 μM) were measured with a FlexStation (Molecular Devices) using a FLIPR CALCIUM ASSAY KIT (Molecular Devices).
The intrinsic activities (IA) of the test compounds were calculated from the maximum response of the test compounds as that of AVP was considered to be 1. In case of a full agonist, the EC50 values of the test compounds were calculated as the maximum response of AVP was considered to be 100% and in the case of a partial agonist, EC50 values of test compounds were calculated as the maximum response of own test compounds were considered to be 100%. The concentration that achieved to 50% response of the maximum response in a concentration-response curve was considered as EC50 value. The values of EC50 obtained in this study were shown in Table 68 described below as indications of the agonism of human V2 receptor.
The Preparation of the Cells Using Confirmation Study of an Agonism of Human V2, Receptor (HEK293 Cells Coexpressed Human V2 Receptor and Gqs Chimeric Protein)
HEK293 cells (American Type Culture Collection) were incubated in the Eagle's Minimum Essential Medium (EMEM, Invitrogen) containing 1 mM sodium pyruvate, nonessential amino acids (0.1 mM), streptomycin (100 μg/mL), penicillin (100 U/mL), 10% fetal calf serum (Sanko chemicals) in an incubator with 5% CO2 at 37° C. The transfection was carried out by adding pCI-neo hV2 expression vector, expression vector inserted with the sequence coding Gqs chimeric protein (pLEC-Gqs5, LiveWare, Molecular Devices) and Lipofectamine2000 (Invitrogen), all diluted with OPTI-MEM I Reduced Serum Medium I (Invitrogen), to the cell suspension which was prepared from the confluent cells suspended with EMEM as mentioned above without antibiotics at 1×10^6 cells/mL. After the transfection, the cells (HEK293 cells coexpressed human V2 receptor and Gqs chimeric protein) were incubated in an incubator with 5% CO2 for two days and were used as cells for confirming agonism of human V2 receptor, and used for assessment of the test compounds. The expression plasmid vector of human V2 receptor represented as pCI-neo/hV2 above was constructed by the method as described below.
The Method of Construction of Human V2 Receptor Expression Plasmid Vector
cDNA library was obtained from reverse transcription of human kidney total RNA using SuperScript II RNase H-reverse transcriptase (Invitrogen) and oligo dT. The DNA fragment encoding human V2 receptor was amplified by the PCR method using the cDNA library as a template, primers used in combination of each forward primer (sequence no. 1-3 shown below) and each reverse primer (sequence no. 4-6 shown below) respectively and pfu DNA polymerase (Stratagene). This amplified DNA fragment and pCR-blunt kit (Invitrogen), a cloning plasmid vector, were ligated by a general method of the kit. […]

[3] = target: T2, cytochrome P-450 (CYP3A4) (Homo sapiens, UniProt P08684); test: Inhibitory effect on cytochrome P-450 (CYP3A4) from human liver microsome; type: in vitro ADME; settings: test compound 10 μM, testosterone 50 μM substrate, 5 minutes at 37° C., rate of substrate metabolism versus control
T2 construct: human liver microsome (1.0 mg/mL) as enzyme; from tissue; host or cells: human liver microsomes
T2 sequence (P08684 whole entry): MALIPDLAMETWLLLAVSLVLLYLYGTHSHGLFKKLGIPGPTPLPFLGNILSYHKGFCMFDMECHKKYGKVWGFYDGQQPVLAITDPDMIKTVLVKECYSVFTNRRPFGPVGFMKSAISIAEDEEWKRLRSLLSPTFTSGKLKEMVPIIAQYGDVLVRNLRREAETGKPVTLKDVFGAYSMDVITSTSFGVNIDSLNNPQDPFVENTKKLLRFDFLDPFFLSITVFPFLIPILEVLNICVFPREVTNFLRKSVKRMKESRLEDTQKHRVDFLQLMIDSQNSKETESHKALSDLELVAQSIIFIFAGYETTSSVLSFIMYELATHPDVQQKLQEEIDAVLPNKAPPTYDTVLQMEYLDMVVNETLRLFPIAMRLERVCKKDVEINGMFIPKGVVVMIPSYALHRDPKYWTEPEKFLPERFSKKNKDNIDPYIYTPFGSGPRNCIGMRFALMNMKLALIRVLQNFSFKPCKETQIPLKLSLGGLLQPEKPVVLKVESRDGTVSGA
Protocol: The Experiment for Inhibitory Effect on Cytochrome P-450 (CYP3A4) Originated from Human Liver Microsome
The test compounds dissolved in dimethylsulfoxide at 10 mM were added to 0.1 M phosphate buffer (pH7.4) containing 10 mM MgCl2, and human liver microsome (1.0 mg/mL) as enzyme and testosterone (50 μM) as a substrate for CYP3A4 were added to this 0.1M phosphate buffer in order to prepare phosphate buffer solution of the test compounds at final concentration of 10 μM (final volume 0.2 mL). The reaction was started by the addition of NADPH (1.0 mg/mL) and then incubated for 5 minutes at 37° C. After acetonitrile was added to stop the reaction, the residual concentration of testosterone was determined using LC/MS/MS, and calculated the rate of metabolism of substrate from the ratio of content of testosterone at end to that at start (A value). As the same way, the experiment except for the test compounds was carried out and remaining testosterone was determined in the same way as mentioned above. The rate of metabolism of substrate was calculated from the ratio of content of testosterone at end to that at start of the reaction (B value) as control value. The ratio of A value against B value was determined as a degree of incidence of test compounds on metabolic rate, which was shown in Table 70.

Male SD rats = test: Acute toxicity test; type: in vivo, rat; settings: 3 mg/kg intravenously, N=3, one hour observation, urethane anesthesia
Protocol: Male SD rats (250-300 g weight) were divided into some groups (N=3) and each cannula was inserted into trachea and jugular vein under anesthesia with urethane (1.5 g/kg, subcutaneously). The test compound solutions were prepared with an adequate solvent to be a dosage of 3 mg/kg, and then the solution was administered intravenously via cannula. The survival rate was determined for an hour experimental period.

[4] = test system: anesthetized rats infused with hypotonic solution; test: Antidiuretic effect on diuresis induced by hypotonic solution in anesthetized rats; type: in vivo, rat; settings: 10 μg/kg intravenously
Protocol: The Study of Antidiuretic Effect-the Confirmation Study of Antidiuretic Effect on the Diuretic Activity Induced by Loading Hypotonic Solution in the Anesthetized Rats Infused with Hypotonic Solution
It has been reported that plasma AVP level was decreased with intravenous infusion of hypotonic solution (J. Endocrinol., Vol. 141, pp. 59-67, 1994). The antidiuretic effect of the test compounds in the rats induced a diuretic condition was determined by the method as reported by Angchanpen et al (Br. J. Pharmacol., Vol. 93, pp. 151-155, 1988). The test compounds were dissolved in dimethylsulfoxide at 10 mM, and used in the study. Male SD rats (200-400 g weight) were anesthetized with 100 mg/kg of Inactin (SIGMA) intraperitonealy and each cannula was inserted into trachea, jugular vein, bladder and femoral vein, respectively. […] The urine volume obtained via cannula inserted into bladder was measured every 10 minutes. […]
The average of urine volume measured for three 10 minutes periods before the administration was defined as the pre value (0%). After the administration of the test compounds, the urine volume was measured every 10 minutes. The antidiuretic effect, namely the decrease of the urine volume, induced by administration of test compounds was calculated from the decreasing rate of urine volume (minus %) against the pre value. […]

Compound	Ki (human V2 receptor [1]) [nM]	EC50 (human V2 receptor [2]) [nM]	IA (intrinsic activity) (human V2 receptor [2])	(A value/B value) × 100 [3]	Dead (Male SD rats)	Antidiuretic effect (decreasing rate of urine volume) ([4]; anesthetized male SD rats, against pre value) [% ^]	Duration time ([4]; period until decreasing rate of urine volume restored to −20%) [min]
Cc1cnc(CN2Cc3ccccc3N(C(=O)c3ccc(OCCO)cc3Cl)CC2=O)o1 [Example 2-21, 1-[2-chloro-4-(2-hydroxyethoxy)benzoyl]-4-(5-methyloxazole-2-ylmethyl)-1,2,4,5-tetrahydrobenzo[e]-1,4-diazepin-3-one]	322	6	1.09	–	–	–	–
CCOC(=O)CN1Cc2ccccc2N(C(=O)c2ccc(N3CCCC3)cc2Cl)CC1=O [Example 1-7, ethyl [1-(2-chloro-4-pyrro-lidin-1-ylbenzoyl)-3-ox-o-1,2,3,5-tetra-hydrobenzo[e]-1,4-di-azepin-4-yl]acetate]	86.6	4	0.92	89.9	0/3	−68.6	30
Cc1nnc(CN2Cc3ccccc3N(C(=O)c3ccc(-n4cccn4)nc3)CC2=O)o1 [Example 1-29, 4-(5-methyl-1,3,4-oxadiazol-2-yl-methyl)-1-[6-(pyrazol-1-yl)py-ridine-3-carbonyl]-1,2,4,5-tetra-hydrobenzo[e]-1,4-di-azepin-3-one]	–	50	0.93	–	–	–	–
Cc1nnc(CN2Cc3ccccc3N(C(=O)c3ccc(OCCCO)nc3C)CC2=O)o1 [Example 31-8, 1-[6-(3-hydroxypropoxy)-2-methylpyridine-3-carbonyl]-4-(5-methyl-1,3,4-oxadiazol-2-ylmethyl)-1,2,4,5-tetrahydrobenzo[e]-1,4-diazepin-3-one]	–	44	1.18	–	–	–	–
O=C1CN(C(=O)c2ccc(N3CCCC3)cc2Cl)c2ccccc2CN1Cc1nnn[nH]1 [Example 15, 1-(2-Chloro-4-pyrrolidin-1-ylbenzoyl)-4-(1H-tetrazol-5-ylmethyl)-1,2,4,5-tetrahydrobenzo[e]-1,4-diazepin-3-one]	97.7	1	1.09	–	–	–	–

More lines, main results first:

Ki (human V2 receptor [1]) [nM]	EC50 (human V2 receptor [2]) [nM]	IA (intrinsic activity) (human V2 receptor [2])	Compound	(A value/B value) × 100 [3]	Dead (Male SD rats)	Antidiuretic effect (decreasing rate of urine volume) ([4]; anesthetized male SD rats, against pre value) [% ^]	Duration time ([4]; period until decreasing rate of urine volume restored to −20%) [min]
197	10	–	O=C(O)CN1Cc2ccccc2N(C(=O)c2ccc(OCC(F)(F)F)cc2Cl)CC1=O [Example 2-5, 1-[2-chloro-4-(2,2,2-trifluoroethoxy)-benzoyl]-3-oxo-1,2,3,5-tetrahydrobenzo[e]-1,4-diazepin-4-yl acetic acid]	–	–	–	–
103	39	0.35	O=C(O)CN1Cc2ccccc2N(C(=O)c2ccc(-c3ccccc3)cc2)CC1=O [Example 31-11, 1-(biphenyl-4-carbonyl)-3-oxo-1,2,3,5-tetrahydrobenzo[e]-1,4-diazepin-4-ylacetic acid]	–	–	–	–
